Data: patent publication US8546102B2, “Methods for determining sodium-proton-exchanger ligand efficiency” (Sanofi, priority 2008, dated 2013)
Where “and” joins values, the source holds several entries; their conditions need not be identical. Identical values can stand only once. Like-named read-outs stand apart in the source and are kept apart here.

How the values were obtained:
human NHE1 (hNHE1) = target: T1, human NHE1 (hNHE1) (Homo sapiens, UniProt P19634); experiment: NHE1 plasma assay (pH recovery, BCECF/FLIPR) with rabbit plasma; assay type: cell-based
T1 construct: expressed in transfected cells
Excerpt: (§1) Plasma samples were obtained from male New Zealand rabbits (2.5-3.5 kg) maintained on standard rabbit chow with 0.3% cariporide (NHE inhibitor). A blood sample was taken after 1 week from the auricular artery for the determination of the plasma concentrations of cariporide. Determination of plasma concentration of cariporide was done as described below:
(§2) The NHE-Gene (SLC9A1, Franchi A. et al., Proc Natl Acad Sci USA., 1986 December; 83(24):9388-92.) was cloned into the pMamneo-vector and introduced into LAP1 (mouse LTK-cell line) cells. Stable cell lines were generated from transfected cells.
(§3) LAP1 (mouse LTK-cell line) cells stably expressing human NHE1 (hNHE1) were seeded with a density of 25.000 cells/well/100 μl medium (Iscove-medium, 10% FCS, 2 mM L-glutamine, 100 u/ml penicilline/streptomycine, 50 μg/ml gentamicine, 400 μg/ml G418) on black, clear bottom 96-well microplates (Costar®, Corning Inc., Corning, N.Y.). Cells were incubated overnight at 37° C., 5% CO2 and 90% humidity. The medium was discarded prior to measurement and 100 μl/well dye buffer (20 mM HEPES, pH 7.4 adjusted with KOH, 20 mM NH4Cl, 115 mM choline chloride, 1 mM MgCl2, 1 mM CaCl2, 5 mM KCl, 5 mM glucose, 5 μM BCECF) were added. After incubation for 20 min at 37° C. the cells were washed 3-times with Na^+-free washing buffer (5 mM HEPES, pH 7.4 adjusted with KOH, 133.8 mM choline chloride, 4.7 mM KCl, 1.25 mM CaCl2, 1.25 mM MgCl2, 0.97 mM K2HPO4, 0.23 mM KH2PO4, 5 mM glucose), leaving 90 μl of washing buffer per well. pH-recovery was measured with a FLIPR (Fluorometric Imaging Plate Reader, Molecular Devices, Sunnyvale, Calif.; laser power 0.3 W, aperture 4, measuring interval 2 s, time of measurement 120 s). During measurement 90 μl of plasma solution (90% animal plasma from animals feeded w/o antagonist, 10% Na^+-buffer: 10 mM HEPES, pH 7.4 adjusted with KOH, 133.8 mM NaCl, 4.7 mM KCl, 1.25 mM MgCl2, 1.25 mM CaCl2, 0.97 mM Na2HPO4, 0.23 mM NaH2PO4, 5 mM glucose) were added to the wells. Due to the Na^+ in the buffer NHE1 starts to transport H^+ out of the cells, leading to an increase in intracellular pH and fluorescence. High control: plasma solution without antagonist. Low control: plasma solution with 20 μM cariporide (10 μM final concentration). Cariporide was added to the plasma after preparation. […] For calibration different amounts of cariporide and the tested antagonists were added to plasma after preparation to determine the efficiency in animal plasma.
(§4) For calculation of NHE1 activity, the increase in fluorescence between the 12th and 32nd s was calculated. The high control was set as 100% activity whereas the low control determines 0% NHE1 activity. %-activity of the samples was calculated by a comparison to the controls.

[1] = as above; assay type: cell-based, human; details: male, New Zealand, rabbit, plasma, oral, 0.3 % in chow; rabbits on 0.3% cariporide chow, 1 week; inferred from complete NHE1 block
Excerpt: as §1, §2, §3, §4

hNHE1 [2] = target: T2, hNHE1 (Homo sapiens, UniProt P19634); experiment: Calibration curve of NHE1 activity, compound dilution series in rat plasma; assay type: cell-based
T2 construct: expressed in transfected cells
Experimental: For the cell-based determination of NHE1 ligand efficiency, LAP1 (mouse LTK-cell line) cells stably expressing hNHE1 (see Example 1) were seeded at a density of 25.000 cells/well/100 μl medium (Iscove-medium, 10% FCS, 2 mM L-glutamine, 100 μ/ml penicilline/streptomycine, 50 μg/ml gentamicine, 400 μg/ml G418) on black, clear bottom 96-well microplates (Costar®, Corning Inc., Corning, N.Y.). Cells were incubated overnight at 37° C., 5% CO2 and 90% humidity. The medium was discarded prior to measurement and 100 μl/well dye buffer (20 mM HEPES, pH 7.4 adjusted with KOH, 20 mM NH4Cl, 115 mM choline chloride, 1 mM MgCl2, 1 mM CaCl2, 5 mM KCl, 5 mM glucose, 5 μM BCECF) were added. After incubation for 20 min at 37° C. the cells were washed 3-times with Na^+-free washing buffer (5 mM HEPES, pH 7.4 adjusted with KOH, 133.8 mM choline chloride, 4.7 mM KCl, 1.25 mM CaCl2, 1.25 mM MgCl2, 0.97 mM K2HPO4, 0.23 mM KH2PO4, 5 mM glucose), leaving 90 μl of washing buffer per well. The plasma probes were prepared as followed: 10% (v/v) Na^+-buffer (10 mM HEPES, pH 7.4 adjusted with KOH, 133.8 mM NaCl, 4.7 mM KCl, 1.25 mM MgCl2, 1.25 mM CaCl2, 0.97 mM Na2HPO4, 0.23 mM NaH2PO4, 5 mM glucose) were added to 90% (v/v) rat plasma. High controls (plasma solution without antagonist) and low controls (plasma solution with 20 μM cariporide, 10 μM final concentration) were prepared. A dilution series of cariporide and COMPOUND X in 10% (v/v) Na^+-buffer/90% (v/v) rat plasma was used for a calibration curve to calculate the compound concentration in the rat plasma probes FIGS. 1 and 2). The pH-recovery was measured with a FLIPR (Fluorometric Imaging Plate Reader, Molecular Devices, Sunnyvale, Calif.; laser power 0.3 W, aperture 4, measuring interval 2 s, time of measurement 120 s). During measurement 90 μl of plasma solution were added to the wells. For calculation of NHE1 activity, the increase in fluorescence between the 12th and 32nd s was calculated. The high control was set as 100% activity and the low control as 0% NHE1 activity. Activity (%) of the samples was calculated by a comparison of the controls. Compound plasma levels were calculated in relation to the calibration curve. Additionally, calibration curves were used to calculate the compound plasma levels in the probe sets.

hNHE1 [3] = target: T2, hNHE1; experiment: NHE1 plasma assay (pH recovery, BCECF/FLIPR) with plasma of treated rats; assay type: cell-based
Experimental: The animals used for the plasma studied were pretreated as follows: • Animals: Male Sprague Dawley rats (Moellegard) • Body weight: 320-360 g • Anesthesia: Thiopental-Na (Trapanal 100 mg/kg i.p.) • Respiration: 40 Vol % O2 • Blood gases: 32-40 mmHg pCO2 • 80-100 mmHg PO2 • pH 7.35-7.49 • SaO2>96% • Ischemia: 20 min occlusion of LAD (left anterior descending coronary artery) • Reperfusion: 60 min • Body temperature: 36.5° C. • Measurement parameters: myocardial infarct mass mean arterial blood pressure heart rate • compound plasma levels • Blood samples: single probe, 85 min after i.v. injection (end of reperfusion) • or • single probe 200 min after oral treatment (end of reperfusion)
Different amounts of plasma were prepared from groups I to VII 85 mins after injection (groups I-IV, VII) or 200 mins after treatment (groups V-VI) and from untreated rats. Plasma was stored at −20° C. until the analysis was performed.
For the cell-based determination of NHE1 ligand efficiency, LAP1 (mouse LTK-cell line) cells stably expressing hNHE1 (see Example 1) were seeded at a density of 25.000 cells/well/100 μl medium (Iscove-medium, 10% FCS, 2 mM L-glutamine, 100 μ/ml penicilline/streptomycine, 50 μg/ml gentamicine, 400 μg/ml G418) on black, clear bottom 96-well microplates (Costar®, Corning Inc., Corning, N.Y.). Cells were incubated overnight at 37° C., 5% CO2 and 90% humidity. The medium was discarded prior to measurement and 100 μl/well dye buffer (20 mM HEPES, pH 7.4 adjusted with KOH, 20 mM NH4Cl, 115 mM choline chloride, 1 mM MgCl2, 1 mM CaCl2, 5 mM KCl, 5 mM glucose, 5 μM BCECF) were added. After incubation for 20 min at 37° C. the cells were washed 3-times with Na^+-free washing buffer (5 mM HEPES, pH 7.4 adjusted with KOH, 133.8 mM choline chloride, 4.7 mM KCl, 1.25 mM CaCl2, 1.25 mM MgCl2, 0.97 mM K2HPO4, 0.23 mM KH2PO4, 5 mM glucose), leaving 90 μl of washing buffer per well. The plasma probes were prepared as followed: 10% (v/v) Na^+-buffer (10 mM HEPES, pH 7.4 adjusted with KOH, 133.8 mM NaCl, 4.7 mM KCl, 1.25 mM MgCl2, 1.25 mM CaCl2, 0.97 mM Na2HPO4, 0.23 mM NaH2PO4, 5 mM glucose) were added to 90% (v/v) rat plasma.
High controls (plasma solution without antagonist) and low controls (plasma solution with 20 μM cariporide, 10 μM final concentration) were prepared. […]
The pH-recovery was measured with a FLIPR (Fluorometric Imaging Plate Reader, Molecular Devices, Sunnyvale, Calif.; laser power 0.3 W, aperture 4, measuring interval 2 s, time of measurement 120 s). […]
For calculation of NHE1 activity, the increase in fluorescence between the 12th and 32nd s was calculated. […] Activity (%) of the samples was calculated by a comparison of the controls. Compound plasma levels were calculated in relation to the calibration curve.

[4] = rat plasma, 1 mg/kg i.v., 85 min after injection

T2 sequence (P19634 whole entry): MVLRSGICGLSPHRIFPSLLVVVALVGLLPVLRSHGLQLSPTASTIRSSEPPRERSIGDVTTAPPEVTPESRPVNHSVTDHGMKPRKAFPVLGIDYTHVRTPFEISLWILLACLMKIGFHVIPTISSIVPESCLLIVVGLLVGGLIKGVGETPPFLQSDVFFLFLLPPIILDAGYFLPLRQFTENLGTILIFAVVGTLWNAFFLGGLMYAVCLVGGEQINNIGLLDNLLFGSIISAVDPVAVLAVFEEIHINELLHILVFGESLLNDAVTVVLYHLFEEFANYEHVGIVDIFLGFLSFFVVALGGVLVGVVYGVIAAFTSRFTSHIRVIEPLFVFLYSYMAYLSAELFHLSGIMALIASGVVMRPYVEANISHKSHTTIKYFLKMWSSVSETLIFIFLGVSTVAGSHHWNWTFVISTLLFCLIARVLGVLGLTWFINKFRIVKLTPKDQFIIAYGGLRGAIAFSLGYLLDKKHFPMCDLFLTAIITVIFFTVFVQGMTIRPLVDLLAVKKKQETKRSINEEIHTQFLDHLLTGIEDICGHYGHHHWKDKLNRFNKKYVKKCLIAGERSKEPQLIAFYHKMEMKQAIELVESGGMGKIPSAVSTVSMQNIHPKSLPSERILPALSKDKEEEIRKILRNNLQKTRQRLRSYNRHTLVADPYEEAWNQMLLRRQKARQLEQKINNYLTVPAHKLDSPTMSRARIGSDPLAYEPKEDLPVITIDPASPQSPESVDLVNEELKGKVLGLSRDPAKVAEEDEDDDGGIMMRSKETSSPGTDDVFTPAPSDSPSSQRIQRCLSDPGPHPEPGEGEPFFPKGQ
T1 sequence (P19634 whole entry): as above

block of NHE1 activity (human NHE1 (hNHE1); 10 μM cariporide (final) added to plasma): complete block
Fluorescence increase measured between the 12th and 32nd s, Average (human NHE1 (hNHE1); low control: rabbit plasma with 10 μM cariporide, high control 14416): 631
block of NHE1 by plasma probes (human NHE1 (hNHE1); plasma from rabbits on 0.3% cariporide chow): complete block
concentration at 1 week [1]: ≥ 10 µM
EC50 (hNHE1 [2]; calibration curve, dilution series in 90% rat plasma/10% Na+-buffer, LAP1 cells expressing hNHE1, read-out: calculated efficiency in rat plasma (EC50)): 115 nM
Fit parameter A of the calibration curve (hNHE1 [2]; rat plasma calibration curve): −7.947
Fit parameter B of the calibration curve (hNHE1 [2]; rat plasma calibration curve): 86.547
Fit parameter D of the calibration curve (hNHE1 [2]; rat plasma calibration curve): −1.239
EC50 (hNHE1 [2]; rat plasma calibration curve, C corresponds to the EC50 (0.662 = 662 nM for compound X), read-out: Fit parameter C of the calibration curve): 189 nM
rel. FI increase mean (hNHE1 [3]; low control: rat plasma solution with 10 μM final cariporide): 3110
Activity [%] mean (hNHE1 [3]; low control: rat plasma with 10 μM final cariporide, set as 0% NHE1 activity): 0%
Activity [%] mean (hNHE1 [3]; [4]): 49.95%
rel. FI increase mean (hNHE1 [3]; [4]): 7392
SMILES: CC(C)c1ccc(C(=O)NC(=N)N)cc1S(C)(=O)=O [cariporide]
NHE1 Activity [%] (human NHE1 (hNHE1); plasma from individual rabbits on 0.3% cariporide chow, sample after 1 week, relative to high/low controls): −0.63% and −5.45% (2×) and −1.53% and −0.39% and −2.25%
